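Exposure lasted 48 hours, with cells grown in 96-well plates and compounds tested at five concentrations. At the TGI there is no net growth.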
What was measured:
Assay in all cases: NCI tumour cell line growth inhibition, 48 h
A549 NSCLC = system: A549 NSCLC
SN12C renal = system: SN12C renal
IGROV1 ovarian = system: IGROV1 ovarian
786-0 renal = system: 786-0 renal
OVCAR-4 ovarian = system: OVCAR-4 ovarian
BT-549 breast = system: BT-549 breast
MDA-MB-435 = system: MDA-MB-435
NCI-H460 lung = system: NCI-H460 lung
SF-295 CNS = system: SF-295 CNS
CCRF-CEM leukemia = system: CCRF-CEM leukemia
OVCAR-5 ovarian = system: OVCAR-5 ovarian
OVCAR-3 ovarian = system: OVCAR-3 ovarian
LOX IMVI melanoma = system: LOX IMVI melanoma
NCI-H522 lung = system: NCI-H522 lung
SF-539 CNS = system: SF-539 CNS
UO-31 renal = system: UO-31 renal
HCC-2998 colon = system: HCC-2998 colon
SR leukemia = system: SR leukemia
ACHN renal = system: ACHN renal
MCF7 breast = system: MCF7 breast
HOP-92 NSCLC = system: HOP-92 NSCLC
SNB-19 CNS = system: SNB-19 CNS
UACC-257 melanoma = system: UACC-257 melanoma
SK-MEL-5 melanoma = system: SK-MEL-5 melanoma
HCT-15 colon = system: HCT-15 colon
MDA-MB-231 breast = system: MDA-MB-231 breast
PC-3 prostate = system: PC-3 prostate
COLO 205 colon = system: COLO 205 colon
MOLT-4 leukemia = system: MOLT-4 leukemia
HL-60(TB) leukemia = system: HL-60(TB) leukemia
T-47D breast = system: T-47D breast
SW-620 colon = system: SW-620 colon
HS 578T breast = system: HS 578T breast
K-562 leukemia = system: K-562 leukemia
RXF 393 renal = system: RXF 393 renal
MDA-N = system: MDA-N
SK-MEL-2 melanoma = system: SK-MEL-2 melanoma
M14 melanoma = system: M14 melanoma
SF-268 CNS = system: SF-268 CNS
CAKI-1 renal = system: CAKI-1 renal
NCI-H226 lung = system: NCI-H226 lung
SNB-75 CNS = system: SNB-75 CNS
MALME-3M melanoma = system: MALME-3M melanoma
EKVX NSCLC = system: EKVX NSCLC
OVCAR-8 ovarian = system: OVCAR-8 ovarian
UACC-62 melanoma = system: UACC-62 melanoma
SK-MEL-28 melanoma = system: SK-MEL-28 melanoma
U251 CNS = system: U251 CNS
HCT-116 colon = system: HCT-116 colon
KM12 colon = system: KM12 colon
DU-145 prostate = system: DU-145 prostate
NCI/ADR-RES ovarian = system: NCI/ADR-RES ovarian
RPMI-8226 leukemia = system: RPMI-8226 leukemia
TK-10 renal = system: TK-10 renal

Measured: TGI

CCOC(=O)c1nc2cc(C(F)(F)F)ccc2nc1Oc1ccc(OC)cc1
> 100 µM: all assays above
